# Test results reported in patent US7358221B1, “Metathesis depolymerizable surfactants” (Sandia Corporation, priority 2004, dated 2008).
# Experiments:
# [1] = Ring-closing metathesis degradation followed by 1H NMR in chloroform; assay type: physicochemical; conditions: 2 mol. % RuCl2[C21H26N2][CHC6H5]P(C6H11)3 (2nd generation Grubbs catalyst), 25° C.
# Source text: Decomposition of these surfactant molecules takes place by the action of a ring closing metathesis-active transition metal catalyst on the tail portion of the surfactant, as illustrated in FIG. 8. It is believed that initiation of the decomposition reaction produces styrene. Intramolecular reaction of double bonds further up the tail group produces cyclohexene faster than cross-metathesis with another surfactant.
# Cyclohexene formation is clearly evident in the solution within five minutes of adding the catalyst, as evidenced by the appearance of broad singlets at δ=1.62 and 1.97 ppm and a characteristic singlet at δ=5.67 ppm.
# ^1H NMR also indicates the presence of the former head group as 7-(N,N,N-trimethylammonium)hept-1-enyl iodide (unchanged chemical shift at δ=3.48 ppm from starting surfactant 4) as well as the cross-coupled product, cis/trans-1,12-bis(trimethylammonium)dodec-6-enyl diiodide (equivalent methyls at δ=3.43 ppm).
# Within 5 minutes after the introduction of catalyst, cyclohexene was clearly present in solution as evidenced by the appearance of broad singlets at δ=1.62 and 1.97 ppm and a characteristic singlet at δ=5.67 ppm (see FIG. 10).
# Additionally, peaks clearly assignable to allyl malonic acid (δ=5.12-5.22 ppm, δ=3.57 ppm, δ=2.68 ppm) were present, by comparison with an authentic sample. […]
# [2] = Critical micelle concentration by dynamic surface tension (surface tensiometry); assay type: physicochemical; conditions: equilibrium mode, aqueous solution
# Source text: FIGS. 5 and 6 also show the response of dynamic surface tension values (operated in equilibrium mode) measured as a function of concentration for surfactants 4 and the anionic salt 7 in aqueous solution. The physicochemical properties of a surfactant change to a significant degree after reaching the cmc due to the presence of micelles and a surfactant-saturated air-water interface.
# A comprehensive listing of all the physicochemical properties calculated for these surfactants is shown above in Table 1.
# The surfactant concentration at the intersection of the two lines which are least-squares fit to (1) the rapidly changing surface tension readings and (2) the low, relatively constant surface tension readings at high surfactant concentrations defines the cmc by this method. The cmc's calculated from the surface tension data of surfactants 4 and 7 are 1.9 mmol and 5.9 mmol, respectively. The higher values for cmc as determined by dynamic surface tension compared to Orange OT dye solubilization can be attributed to static (dye solubilization) vs. dynamic (surface tension) measurements of the microenvironment.
time to nearly complete decomposition [1],Compound,cmc as determined by surface tensiometry [2]
≤ 60 min,"C=CCCCCC=CCCCCC=CCCCCC[N+](C)(C)C.[I-] [Surfactant 4, trimethylnonadeca-6,12,18-trienylammonium iodide]",1.9 mmol
,"dipotassium heneicosa-2,8,14,20-tetraenyl malonate [Surfactant 7]",5.9 mmol
